Among the data in patent US12264134B2 (Merck Sharp & Dohme LLC, priority 2018, dated 2025) are IC50 values, retold here.

pIC50: −log10 of the molar value.

IDO1, sequence (P14902 whole entry): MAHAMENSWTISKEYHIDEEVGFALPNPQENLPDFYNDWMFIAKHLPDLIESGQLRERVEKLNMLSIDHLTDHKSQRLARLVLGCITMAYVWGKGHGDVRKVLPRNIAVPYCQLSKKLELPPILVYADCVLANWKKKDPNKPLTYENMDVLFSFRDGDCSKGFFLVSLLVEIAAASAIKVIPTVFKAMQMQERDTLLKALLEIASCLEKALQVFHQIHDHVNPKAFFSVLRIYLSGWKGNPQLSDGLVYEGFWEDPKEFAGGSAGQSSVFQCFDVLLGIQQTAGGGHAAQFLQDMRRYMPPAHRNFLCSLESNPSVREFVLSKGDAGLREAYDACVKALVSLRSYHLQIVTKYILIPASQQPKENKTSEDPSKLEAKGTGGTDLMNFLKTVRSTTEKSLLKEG

The assay has as its target IDO1 (Homo sapiens, UniProt P14902). Description: IDO1 Cellular Assay in HeLa Cells Stimulated with IFNγ. It is filed as cell-based. Particulars: read-out: HeLa Cell Potency, IC50.
As to `Cc1cccc(N2CCN(C(=O)Cn3nc(C(=O)N4CCN(C(=O)[C@@H](C)O)CC4)c4c3CCC4)CC2)c1C` [Example 403, (R)-1-(4-(1-(2-(4-(2,3-dimethylphenyl)piperazin-1-yl)-2-oxoethyl)-1,4,5,6-tetrahydrocyclopenta[c]pyrazole-3-carbonyl)piperazin-1-yl)-2-hydroxypropan-1-one], the pIC50 was 7.74.
In the case of `Cc1c(Cl)cccc1N1CCN(C(=O)Cn2nc(C(=O)N3CC[C@H](O)[C@@H](F)C3)c3c2CCCC3)CC1` [Example 404, 1-(4-(3-chloro-2-methylphenyl)piperazin-1-yl)-2-(3-((3S,4S)-3-fluoro-4-hydroxypiperidine-1-carbonyl)-4,5,6,7-tetrahydro-1H-indazol-1-yl)ethanone], the pIC50 is 8.97.
With `Cc1c(Cl)cccc1N1CCN(C(=O)Cn2nc(C(=O)N3CCC(O)(CF)CC3)c3c2CCCC3)CC1` [Example 407, 1-(4-(3-chloro-2-methylphenyl)piperazin-1-yl)-2-(3-(4-(fluoromethyl)-4-hydroxypiperidine-1-carbonyl)-4,5,6,7-tetrahydro-1H-indazol-1-yl)ethanone], the pIC50 was 8.96.
For `Cc1c(Cl)ccnc1N1CCN(C(=O)Cn2nc(C(=O)N3CCC(O)CC3)c3c2CCCC3)C2(CC2)C1` [Example 408, 1-(7-(4-chloro-3-methylpyridin-2-yl)-4,7-diazaspiro[2.5]octan-4-yl)-2-(3-(4-hydroxypiperidine-1-carbonyl)-4,5,6,7-tetrahydro-1H-indazol-1-yl)ethanone] the value was 8.31; for `Cc1cccc(N2CCN(C(=O)Cn3nc(C(=O)N4CCC(O)CC4)c4c3CCCCC4)CC2)c1C` [Example 409, 1-(4-(2,3-dimethylphenyl)piperazin-1-yl)-2-(3-(4-hydroxypiperidine-1-carbonyl)-5,6,7,8-tetrahydrocyclohepta[c]pyrazol-1(4H)-yl)ethan-1-one], 8.58; for `Cc1cccc(N2CCN(C(=O)Cn3nc(C(=O)N4C[C@@H](C)O[C@@H](C)C4)c4c3CCCCC4)CC2)c1C` [Example 410, 2-(3-((2R,6S)-2,6-dimethylmorpholine-4-carbonyl)-5,6,7,8-tetrahydrocyclohepta[c]pyrazol-1(4H)-yl)-1-(4-(2,3-dimethylphenyl)piperazin-1-yl)ethanone], 8.30.
As to `Cc1cccc(N2CCN(C(=O)Cn3nc(C(=O)N4CCC(O)C(F)C4)c4c3CCCCC4)CC2)c1C` (stereo not drawn) [Example 411, 1-(4-(2,3-dimethylphenyl)piperazin-1-yl)-2-(3-(3-fluoro-4-hydroxypiperidine-1-carbonyl)-5,6,7,8-tetrahydrocyclohepta[c]pyrazol-1(4H)-yl)ethanone], the pIC50 is 8.06.
As for `Cc1cccc(N2CCN(C(=O)Cn3nc(C(=O)N4CC[C@H](O)[C@H](F)C4)c4c3CCCCC4)CC2)c1C` [Example 412, 1-(4-(2,3-dimethylphenyl)piperazin-1-yl)-2-(3-((3R,4S)-3-fluoro-4-hydroxypiperidine-1-carbonyl)-5,6,7,8-tetrahydrocyclohepta[c]pyrazol-1(4H)-yl)ethanone], the figure is 8.27.
Take `Cc1cccc(N2CCN(C(=O)Cn3nc(C(=O)N4CC[C@H](O)[C@@H](F)C4)c4c3CCCCC4)CC2)c1C` [Example 413, 1-(4-(2,3-dimethylphenyl)piperazin-1-yl)-2-(3-((3S,4S)-3-fluoro-4-hydroxypiperidine-1-carbonyl)-5,6,7,8-tetrahydrocyclohepta[c]pyrazol-1(4H)-yl)ethanone]: the pIC50 was 8.03.
For the compound `Cc1cccc(N2CCN(C(=O)Cn3nc(C(=O)N4CC[C@H](O)[C@@H](F)C4)c4c3C(O)CC4)CC2)c1C` (stereo partly drawn) [Example 420, 1-(4-(2,3-dimethylphenyl)piperazin-1-yl)-2-(3-((3 S,4 S)-3-fluoro-4-hydroxypiperidine-1-carbonyl)-6-hydroxy-5,6-dihydrocyclopenta[c]pyrazol-1(4H)-yl)ethan-1-one], the pIC50 is 7.06.
As to `Cc1cccc(N2CCN(C(=O)Cn3nc(C(=O)N4CC[C@H](O)[C@@H](F)C4)c4c3CC(F)(F)C4)CC2)c1C` [Example 424, 2-(5,5-difluoro-3-((3 S,4S)-3-fluoro-4-hydroxypiperidine-1-carbonyl)-5,6-dihydrocyclopenta[c]pyrazol-1(4H)-yl)-1-(4-(2,3-dimethylphenyl)piperazin-1-yl)ethan-1-one], the pIC50 was 6.38.
Consider `O=C(Cn1nc(C(=O)N2CC[C@H](O)[C@H](F)C2)c2c1CCC2)N1CCN(C2CCCc3ccccc32)CC1` (stereo partly drawn) [Example 425, 2-(3-((3R,4S)-3-fluoro-4-hydroxypiperidine-1-carbonyl)-5,6-dihydrocyclopenta[c]pyrazol-1(4H)-yl)-1-(4-(1,2,3,4-tetrahydronaphthalen-1-yl)piperazin-1-yl)ethanone], for which the pIC50 was 6.25.
Regarding `C[C@@H]1CN(C(=O)c2nn(CC(=O)N3CCN(C4CCCc5ccccc54)CC3)c3c2CCC3)C[C@H](C)O1` (stereo partly drawn) [Example 428, 2-(3-((2S,6R)-2,6-dimethylmorpholine-4-carbonyl)-5,6-dihydrocyclopenta[c]pyrazol-1(4H)-yl)-1-(4-(1,2,3,4-tetrahydronaphthalen-1-yl)piperazin-1-yl)ethanone], the pIC50 was 7.07.
Regarding `O=C(Cn1nc(C(=O)N2CC[C@H](O)[C@@H](F)C2)c2c1CCC2)N1CCN(C2CCCc3ccccc32)CC1` (stereo partly drawn) [Example 433, 2-(3-((3S,4S)-3-fluoro-4-hydroxypiperidine-1-carbonyl)-5,6-dihydrocyclopenta[c]pyrazol-1(4H)-yl)-1-(4-(1,2,3,4-tetrahydronaphthalen-1-yl)piperazin-1-yl)ethanone], the pIC50 is 6.31.
On to `O=C(Cn1nc(C(=O)N2CC[C@H](O)[C@@H](F)C2)c2c1CCC2)N1CCN(C2CCCc3ccccc32)CC1` (stereo partly drawn) [Example 434, 2-(3-((3S,4S)-3-fluoro-4-hydroxypiperidine-1-carbonyl)-5,6-dihydrocyclopenta[c]pyrazol-1(4H)-yl)-1-(4-(1,2,3,4-tetrahydronaphalen-1-yl)piperazin-1-yl)ethanone], for which the pIC50 is 5.09.
Regarding `O=C(Cn1nc(C(=O)N2CCC(O)CC2)c2c1CCC2)N1CCN(C2CCc3ccccc32)CC1` (stereo not drawn) [Example 435, 1-(4-(2,3-dihydro-1H-inden-1-yl)piperazin-1-yl)-2-(3-(4-hydroxypiperidine-1-carbonyl)-5,6-dihydrocyclopenta[c]pyrazol-1(4H)-yl)ethanone], the pIC50 is 6.58.
As for `O=C(Cn1nc(C(=O)N2CCC(O)(CF)CC2)c2c1CCC2)N1CCN(c2cccc3c(F)cccc23)CC1` [Example 444, 2-(3-(4-(fluoromethyl)-4-hydroxypiperidine-1-carbonyl)-5,6-dihydrocyclopenta[c]pyrazol-1(4H)-yl)-1-(4-(5-fluoronaphthalen-1-yl)piperazin-1-yl)ethan-1-one], the figure is 6.53.
As to `Cc1c(N2CCN(C(=O)Cn3nc(C(=O)N4CCC(O)(CF)CC4)c4c3CCC4)CC2)ccc(F)c1Cl` [Example 445, 1-(4-(3-chloro-4-fluoro-2-methylphenyl)piperazin-1-yl)-2-(3-(4-(fluoromethyl)-4-hydroxypiperidine-1-carbonyl)-5,6-dihydrocyclopenta[c]pyrazol-1(4H)-yl)ethan-1-one], the pIC50 was 8.27.

Usually pIC50 stands for the negative decadic logarithm of the IC50, by convention in mol/L.
